Results from publication PMC6066219 (PLoS ONE, 2018).
“Also recorded” adds a separate entry of the source. Marks after values point to notes of the source that are not given here. Starred links: 1 amine or outer side, 2 acyl side, 3 side chain; linkers in the order of their positions; H or OH if unused. Positions of bridges follow the written chain, without caps; N, C: chain ends. Non-standard residues stand in square brackets, D forms with d. Residues, ends and D or L forms follow the SMILES beside them. Chains are numbered I, II in the order given. X1 = CC1=CC(=O)N(O)CCCC(NC(=O)CCN2C(=O)CC([*:3])C2=O)C(=O)OCCC(C)=CC(=O)N(O)CCCC(NC(=O)CCN2C(=O)CC([*:2])C2=O)C(=O)OCCC(C)=CC(=O)N(O)CCCC(NC(=O)CCN2C(=O)CC([*:1])C2=O)C(=O)OCC1; X2 = CC(=O)NC1CCCN(O)C(=O)C=C(C)CCOC(=O)C(NC(=O)CCN2C(=O)CC([*:1])C2=O)CCCN(O)C(=O)C=C(C)CCOC(=O)C(NC(=O)CCN2C(=O)CC([*:2])C2=O)CCCN(O)C(=O)C=C(C)CCOC1=O; Mpa = O=C(O)CCS

Key:
[1] = tested on: peptidase (protease type 1 from bovine pancreas); experiment: radiolabelling solution neutralized, diluted with PBS, 10 mU of peptidase; conditions: 37°C, up to 120 min
[2] = liver homogenate of injected mice; conditions: BALB/c mice, up to 5 min post injection
[3] = freshly prepared human serum; conditions: 37°C, up to 4 h
[4] = tested on: peptidase (protease type 1 from bovine pancreas, Sigma Aldrich); experiment: PBS with 10 mU of peptidase; conditions: 37°C, up to 120 min
[5] = tested on: peptidase (protease type 1 from bovine pancreas); experiment: trimeric peptides labelled with non-radioactive gallium, neutralized, 1 mU of peptidase; conditions: 37°C
[6] = tested on: peptidase (protease type 1 from bovine pancreas); experiment: PBS with 1 mU of peptidase; conditions: 37°C, up to 2 h
[7] = tested on: peptidase (protease type 1 from bovine pancreas); experiment: neutralized Ga-labelling solution with 1 mU of peptidase; conditions: 37°C
[8] = tested on: peptidase (protease type 1 from bovine pancreas); experiment: iron chelated trimeric peptides dissolved in PBS, 1 mU of peptidase added; conditions: 37°C, up to 2 h
[9] = cited from earlier work
CCK2 receptor = target: T1, CCK2 receptor (Homo sapiens, UniProt P32239); parameters: method as in PMID 29849512; conditions: natGa-labelled competitor; 125I-[Leu15]-Gastrin radioligand; whole A431-CCK2R cells; cited from earlier work
T1 construct: expressed in transfected cells; host or cells: A431 human epidermoid carcinoma cells (A431-CCK2R), gift from Dr. L. Aloj
T1 sequence (P32239 1-447): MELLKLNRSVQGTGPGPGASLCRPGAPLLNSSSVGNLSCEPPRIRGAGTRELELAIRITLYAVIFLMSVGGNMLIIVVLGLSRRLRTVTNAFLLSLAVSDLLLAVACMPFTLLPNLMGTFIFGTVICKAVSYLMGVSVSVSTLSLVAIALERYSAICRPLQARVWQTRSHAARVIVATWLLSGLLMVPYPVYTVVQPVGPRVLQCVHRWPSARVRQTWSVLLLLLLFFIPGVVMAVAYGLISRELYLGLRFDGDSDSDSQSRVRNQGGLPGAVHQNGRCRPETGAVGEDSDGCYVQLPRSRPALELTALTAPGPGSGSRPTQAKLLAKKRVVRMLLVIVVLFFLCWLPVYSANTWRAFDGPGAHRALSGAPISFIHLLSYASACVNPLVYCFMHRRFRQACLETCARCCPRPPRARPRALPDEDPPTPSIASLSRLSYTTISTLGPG

[10] = tested on: A431-CCK2R/A431-mock tumour xenografted BALB/c nude mice; conditions: mouse, in vivo; cited from earlier work

In the case of “3-MP^0-[D-Glu^1,desGlu^2-6]-Ala-Tyr-Gly-Trp-Met-Asp-Phe-NH2 [^68Ga-Trimer-Met]”, the fragment found [1] is reported as “^68Ga-Trimer-Met-M1, major, 5 min; also recorded: ^68Ga-Trimer-Met-M2, major; also recorded: ^68Ga-Trimer-Met-M3” and the fragment found [2] is reported as “^68Ga-Trimer-Met-M1, major, 5 min post injection; also recorded: ^68Ga-Trimer-Met-M2, major, 5 min post injection”.
With “3-MP^0-[D-Glu^1,desGlu^2-6]-Ala-Tyr-Gly-Trp-Met-Asp-Phe-NH2 [68Ga-Trimer-Met]” the fragment found [3] was “^68Ga-Trimer-Met-M1 (tR = 10.14 min), major; also recorded: ^68Ga-Trimer-Met-M2 (tR = 8.09 min), major” and the fragment found [4] was “^68Ga-Trimer-Met-M1 (tR = 10.14 min), major; also recorded: ^68Ga-Trimer-Met-M2 (tR = 8.09 min), major; also recorded: ^68Ga-Trimer-Met-M3 (tR = 5.68 min)”.
In the case of “3-MP^0-[D-Glu^1,desGlu^2-6]-Ala-Tyr-Gly-Trp-Nle-Asp-Phe-NH2”, the fragment found [5] is reported as “Ga-Trimer-Nle-M1; also recorded: Ga-Trimer-Nle-M2; also recorded: Ga-Trimer-Nle-M3”, the cleaved bond [6] is reported as “Tyr-Gly, major” and the fragment found [7] is reported as “Ga-Trimer-Nle-M1 (tR = 10.86 min); also recorded: Ga-Trimer-Nle-M2 (tR = 8.52 min)”. For the same molecule, the cleaved bond [8] was “Tyr-Gly, major”.
With “3-MP^0-[D-Glu^1,desGlu^2-6]-Ala-Tyr-Gly-Trp-Nle-Asp-Phe-NH2 [68Ga-Trimer-Nle]” the fragment found [3] was “^68Ga-Trimer-Nle-M1 (tR = 10.90 min), major; also recorded: ^68Ga-Trimer-Nle-M2 (tR = 8.59 min), major” and the fragment found [4] was “^68Ga-Trimer-Nle-M1 (tR = 10.93 min), major; also recorded: ^68Ga-Trimer-Nle-M2 (tR = 8.60 min), major”.
For `CSCC[C@H](NC(=O)[C@H](Cc1c[nH]c2ccccc12)NC(=O)CNC(=O)[C@H](Cc1ccc(O)cc1)NC(=O)[C@H](C)NC(=O)[C@@H](CCC(=O)O)NC(=O)CCSC1CC(=O)N(CCC(=O)NC2CCCN(O)C(=O)C=C(C)CCOC(=O)C(NC(=O)CCN3C(=O)CC(SCCC(=O)N[C@H](CCC(=O)O)C(=O)N[C@@H](C)C(=O)N[C@@H](Cc4ccc(O)cc4)C(=O)NCC(=O)N[C@@H](Cc4c[nH]c5ccccc45)C(=O)N[C@@H](CCSC)C(=O)N[C@@H](CC(=O)O)C(=O)N[C@@H](Cc4ccccc4)C(N)=O)C3=O)CCCN(O)C(=O)C=C(C)CCOC(=O)C(NC(C)=O)CCCN(O)C(=O)C=C(C)CCOC2=O)C1=O)C(=O)N[C@@H](CC(=O)O)C(=O)N[C@@H](Cc1ccccc1)C(N)=O` (stereo partly drawn) [Dimer-Met] (I: [Mpa][dE]AYGWMDF-NH2 / II: [Mpa][dE]AYGWMDF-NH2; linker I:1-II:1 via X2), the “Distribution coefficient logD (pH 7.4)” value [9] is given as -2.38 ± 0.04, the IC50 (CCK2 receptor) is given as 0.85 ± 0.15 nM and the “Ratio T/O tumour-to-A431-mock” value [10] is given as 17.9 ± 6.1^c. For the same molecule, the “Ratio T/O tumour-to-Blood” value [10] was 16.0 ± 3.1^cd, the “Ratio T/O tumour-to-Bone” value [10] was 11.6 ± 1.9^c and the “Ratio T/O tumour-to-Heart” value [10] was 27.2 ± 4.8^cd. The “Ratio T/O tumour-to-Intestine” value [10] was 19.9 ± 4.9^acd, the “Ratio T/O tumour-to-Kidneys” value [10] was 0.30 ± 0.06^c and the “Ratio T/O tumour-to-Liver” value [10] was 11.1 ± 2.4^cd. The “Ratio T/O tumour-to-Lung” value [10] was 14.4 ± 2.3^cd, the “Ratio T/O tumour-to-Muscle” value [10] was 31.4 ± 13.2^c and the “Ratio T/O tumour-to-Pancreas” value [10] was 17.9 ± 3.2^cd. For the same molecule, the “Ratio T/O tumour-to-Spleen” value [10] was 23.1 ± 4.2^cd and the “Ratio T/O tumour-to-Stomach” value [10] was 4.0 ± 0.5^cd.
For “Monomer-Met: monovalent FSC-based minigastrin conjugate: dAcFSC-mal coupled to one MG-Met-SH peptide (EAYGWMDF; D-Glu at position 1 (printed D-Glu1, desGlu2-6); N-terminal 3-mercaptopropanoyl (3-MP0) whose thiol is coupled to the maleimide of diacetyl-fusarinine C (dAcFSC-mal); C-terminal Phe amide; FSC chelate)”, the IC50 (CCK2 receptor) is listed as 9.71 ± 3.55 nM.
For `CSCC[C@H](NC(=O)[C@H](Cc1c[nH]c2ccccc12)NC(=O)CNC(=O)[C@H](Cc1ccc(O)cc1)NC(=O)[C@H](C)NC(=O)[C@@H](CCC(=O)O)NC(=O)CCSC1CC(=O)N(CCC(=O)NC2CCCN(O)C(=O)C=C(C)CCOC(=O)C(NC(=O)CCN3C(=O)CC(SCCC(=O)N[C@H](CCC(=O)O)C(=O)N[C@@H](C)C(=O)N[C@@H](Cc4ccc(O)cc4)C(=O)NCC(=O)N[C@@H](Cc4c[nH]c5ccccc45)C(=O)N[C@@H](CCSC)C(=O)N[C@@H](CC(=O)O)C(=O)N[C@@H](Cc4ccccc4)C(N)=O)C3=O)CCCN(O)C(=O)C=C(C)CCOC(=O)C(NC(=O)CCN3C(=O)CC(SCCC(=O)N[C@H](CCC(=O)O)C(=O)N[C@@H](C)C(=O)N[C@@H](Cc4ccc(O)cc4)C(=O)NCC(=O)N[C@@H](Cc4c[nH]c5ccccc45)C(=O)N[C@@H](CCSC)C(=O)N[C@@H](CC(=O)O)C(=O)N[C@@H](Cc4ccccc4)C(N)=O)C3=O)CCCN(O)C(=O)C=C(C)CCOC2=O)C1=O)C(=O)N[C@@H](CC(=O)O)C(=O)N[C@@H](Cc1ccccc1)C(N)=O` (stereo partly drawn) [Trimer-Met] (I: [Mpa][dE]AYGWMDF-NH2 / II: [Mpa][dE]AYGWMDF-NH2 / III: [Mpa][dE]AYGWMDF-NH2; linker I:1-II:1-III:1 via X1), the “Distribution coefficient logD (pH 7.4)” value [9] is given as -2.20 ± 0.07 and the IC50 (CCK2 receptor) is given as 8.33 ± 2.2 nM.
In the case of “3-MP^0-[D-Glu^1,desGlu^2-6]-Ala-Tyr-Gly-Trp-Nle-Asp-Phe-NH2 [^68Ga-Trimer-Nle]”, the fragment found [1] is reported as “^68Ga-Trimer-Nle-M1, major, 5 min; also recorded: ^68Ga-Trimer-Nle-M2, major” and the fragment found [2] is reported as “^68Ga-Trimer-Nle-M1, major, 5 min post injection; also recorded: ^68Ga-Trimer-Nle-M2, major, 5 min post injection”.
With “3-MP^0-[D-Glu^1,desGlu^2-6]-Ala-Tyr-Gly-Trp-Met-Asp-Phe-NH2” the fragment found [5] was “Ga-Trimer-Met-M1; also recorded: Ga-Trimer-Met-M2; also recorded: Ga-Trimer-Met-M3”, the cleaved bond [6] was “Tyr-Gly, major” and the fragment found [7] was “Ga-Trimer-Met-M1 (tR = 10.08 min); also recorded: Ga-Trimer-Met-M2 (tR = 8.02 min)”. For the same molecule, the cleaved bond [8] was “Tyr-Gly, major”.
